The values that follow come from patent publication US7250397B2, “Antiarrhythmic peptides” (Zealand Pharma A/S, priority 2000, dated 2007).

Test [1] relates to calcium-induced arrythmias. The experiment in a line: Calcium-induced arrhythmia model in mice. It counts as in vivo. Conditions: mouse, in vivo, iv. Here is the method: The antiarrhythmic effects of compounds of this invention were tested in an in vivo model of calcium-induced arrythmias according to the model of Lynch et al.^[37]. […]. Commercial solutions of hypnorm and midazolam were diluted 1:1 in distilled water and one part diluted Hypnorm® is mixed with one part diluted midazolam.
The anaesthesia was induced by s.c. administration in a dose of 0.05-0.075 μl/10 gram mouse. An i.v cannula was inserted into the tail vein. The lead II ECG signal was recorded continuously by positioning of a stainless steel ECG electrodes on the right forelimb and on the left hind limb. The ground electrode was placed on the right hind limb. The signal was amplified (x 5.000-10.000) and filtered (0.1-150 Hz) via a Hugo Sachs Electronic model 689 ECG module. The analogue signal was digitised via a 12 bit data acquisition board (Data Translation model DT321) and sampled at 1000 Hz using the Notocord HEM 3.1 software for Windows NT. After a 10-min equilibration period, the test sample of drug was injected into the tail vein. Mice pre-treated with vehicle were tested as a measure of the control level in untreated animals. The injection volume was 100 μl in all experiments. Infusion of CaCl2 (30 mg/ml, 0.1 ml/min≈100 mg/kg/min (calciumchlorid-2-hydrat, Riedel-de Häen, Germany)) was started 3 min after i.v. administration of drug or vehicle. The time lag to onset of 2nd degree AV-block was determined as the time from the start of CaCl2 infusion until the first arrhythmic event occured. An event of 2nd degree AV-block was defined as intermittent failure of the AV conduction characterised by a P-wave without the concomitant QRS complex.
Responses were expressed relative to the time until 2nd degree AV-block occurred in vehicle treated mice.

A further test deals with human osteoblast. The experiment in a line: Lucifer Yellow dye transfer in human osteoblasts. It counts as cell-based. Conditions: 10 minutes; after 48 hours hypoxia 3-6% O2 (7 cells before). The procedure:
Human osteblast cells (hOB): Cells were isolated from human bone marrow obtained by puncture of the posterior iliac spine of healthy volunteers (aged 20-36): 10-15 ml marrow material was collected in 15 ml PBS+Ca,Mg (Life Technologies, Cat.No. 14040) with 100 U/ml Heparin (Sigma, Cat.No. H-3149). The mononuclear fraction of the marrow was isolated on a Lymphoprep gradient (Nycomed Pharma, Cat.No. 1001967), by centrifugation at 2200 rpm for 30 min. After harvesting, the mononuclear fraction was washed once with culture medium and centrifuged at 1800 rpm for 10 min. Subsequently cells were counted and plated in culture medium at 8×10^6 cells/100 mm dish. hOB medium (all reagents obtained from Life Technologies): MEM w/o Phenol Red w/Glutamax (Cat.No. 041-93013) supplemented with 10% heat inactivated fetal calf serum (Cat.No. 10106) and 0.1% Penicillin/Streptomycin (Cat.No. 15140). Medium was changed the following day and the cells were cultured at 37° C. in 5%CO2 with medium change every 7 days. […]
To assess the effect of the compound on direct cellular coupling, microinjection experiments were performed according to the method described above. […] After 30 seconds, the number of cells containing dye was assessed. […] Then cellular coupling was re-assessed by microinjecting LY, and at this point the dye was only passed to an average of 7 cells (n=10).

In the case of “Ac-D-Tyr-D-Pro-D-4Hyp-Gly-D-Ala-Gly-NH2 [Compound 2]”, the In vivo activity entry in test [1] was “+++ (key: +++: >60% increase in time until arrhythmia; ++: 30-50% increase in time until arrhythmia; +: 15-29% increase in time until arrhythmia; (+): ≦15% increase in time until arrythmia)”. Moreover, in the test on human osteoblast, the “dye transfer, number of cells” value worked out at 9 cells.
